Assay results taken from ChEMBL document CHEMBL1133982, “Selective heterocyclic amidine inhibitors of human inducible nitric oxide synthase” (Bioorg Med Chem Lett, 2001).

Key:
[1] = biological target: T1, Nitric oxide synthase, inducible (Homo sapiens, UniProt P35228); assay: Inhibition of inducible nitric oxide synthase
Nitric oxide synthase 1 [2] = biological target: T2, Nitric oxide synthase 1 (Homo sapiens, UniProt P29475); assay: Inhibition of Neuronal nitric oxide synthase
Nitric oxide synthase 3 = biological target: T3, Nitric oxide synthase 3 (Homo sapiens, UniProt P29474); assay: Inhibition of endothelial nitric oxide synthase
T3 sequence (P29474 whole entry): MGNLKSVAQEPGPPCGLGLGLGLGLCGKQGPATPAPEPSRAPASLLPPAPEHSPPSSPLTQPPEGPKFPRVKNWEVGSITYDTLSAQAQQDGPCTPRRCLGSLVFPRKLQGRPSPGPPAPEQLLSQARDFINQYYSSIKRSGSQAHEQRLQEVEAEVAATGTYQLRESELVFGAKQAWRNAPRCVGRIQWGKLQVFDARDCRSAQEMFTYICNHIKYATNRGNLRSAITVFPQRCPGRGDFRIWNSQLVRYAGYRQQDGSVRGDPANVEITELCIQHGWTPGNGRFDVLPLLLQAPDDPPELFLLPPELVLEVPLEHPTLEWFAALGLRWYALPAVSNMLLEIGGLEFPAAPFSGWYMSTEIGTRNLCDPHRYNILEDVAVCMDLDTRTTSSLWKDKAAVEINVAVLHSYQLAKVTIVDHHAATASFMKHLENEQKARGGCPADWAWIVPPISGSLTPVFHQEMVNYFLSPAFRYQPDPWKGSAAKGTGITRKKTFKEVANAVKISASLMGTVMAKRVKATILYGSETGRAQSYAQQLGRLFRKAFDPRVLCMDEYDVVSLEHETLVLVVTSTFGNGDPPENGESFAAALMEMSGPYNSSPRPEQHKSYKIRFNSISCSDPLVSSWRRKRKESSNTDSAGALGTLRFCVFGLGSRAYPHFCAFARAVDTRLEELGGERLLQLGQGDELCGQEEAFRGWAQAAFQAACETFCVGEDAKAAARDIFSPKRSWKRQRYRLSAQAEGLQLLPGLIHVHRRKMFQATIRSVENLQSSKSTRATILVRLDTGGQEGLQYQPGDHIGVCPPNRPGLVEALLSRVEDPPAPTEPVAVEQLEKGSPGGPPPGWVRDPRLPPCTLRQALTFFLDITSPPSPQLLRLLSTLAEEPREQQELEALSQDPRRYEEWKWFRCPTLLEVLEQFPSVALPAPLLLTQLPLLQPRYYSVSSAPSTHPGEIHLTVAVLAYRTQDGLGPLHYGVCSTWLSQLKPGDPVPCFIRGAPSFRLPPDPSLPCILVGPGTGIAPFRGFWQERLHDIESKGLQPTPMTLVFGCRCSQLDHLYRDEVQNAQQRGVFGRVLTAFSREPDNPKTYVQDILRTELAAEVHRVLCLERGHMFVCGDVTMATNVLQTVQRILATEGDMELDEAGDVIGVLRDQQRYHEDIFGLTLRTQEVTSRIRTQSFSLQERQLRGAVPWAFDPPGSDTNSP

[3] = biological target: T4, Nitric oxide synthase 3 (Homo sapiens) (UniProt P29474); assay: Inhibitory activity against Endothelial nitric oxide synthase at 100 uM concentration was determined
T4 sequence (whole entry): T3 sequence (P29474 whole entry)

[4] = biological target: T1, Nitric oxide synthase, inducible; assay: Inhibitory activity against Inducible nitric oxide synthase at 100 uM concentration was determined
Nitric oxide synthase 1 [5] = biological target: T2, Nitric oxide synthase 1; assay: Inhibitory activity against Neuronal nitric oxide synthase at 100 uM concentration was determined

T2 sequence (P29475 whole entry): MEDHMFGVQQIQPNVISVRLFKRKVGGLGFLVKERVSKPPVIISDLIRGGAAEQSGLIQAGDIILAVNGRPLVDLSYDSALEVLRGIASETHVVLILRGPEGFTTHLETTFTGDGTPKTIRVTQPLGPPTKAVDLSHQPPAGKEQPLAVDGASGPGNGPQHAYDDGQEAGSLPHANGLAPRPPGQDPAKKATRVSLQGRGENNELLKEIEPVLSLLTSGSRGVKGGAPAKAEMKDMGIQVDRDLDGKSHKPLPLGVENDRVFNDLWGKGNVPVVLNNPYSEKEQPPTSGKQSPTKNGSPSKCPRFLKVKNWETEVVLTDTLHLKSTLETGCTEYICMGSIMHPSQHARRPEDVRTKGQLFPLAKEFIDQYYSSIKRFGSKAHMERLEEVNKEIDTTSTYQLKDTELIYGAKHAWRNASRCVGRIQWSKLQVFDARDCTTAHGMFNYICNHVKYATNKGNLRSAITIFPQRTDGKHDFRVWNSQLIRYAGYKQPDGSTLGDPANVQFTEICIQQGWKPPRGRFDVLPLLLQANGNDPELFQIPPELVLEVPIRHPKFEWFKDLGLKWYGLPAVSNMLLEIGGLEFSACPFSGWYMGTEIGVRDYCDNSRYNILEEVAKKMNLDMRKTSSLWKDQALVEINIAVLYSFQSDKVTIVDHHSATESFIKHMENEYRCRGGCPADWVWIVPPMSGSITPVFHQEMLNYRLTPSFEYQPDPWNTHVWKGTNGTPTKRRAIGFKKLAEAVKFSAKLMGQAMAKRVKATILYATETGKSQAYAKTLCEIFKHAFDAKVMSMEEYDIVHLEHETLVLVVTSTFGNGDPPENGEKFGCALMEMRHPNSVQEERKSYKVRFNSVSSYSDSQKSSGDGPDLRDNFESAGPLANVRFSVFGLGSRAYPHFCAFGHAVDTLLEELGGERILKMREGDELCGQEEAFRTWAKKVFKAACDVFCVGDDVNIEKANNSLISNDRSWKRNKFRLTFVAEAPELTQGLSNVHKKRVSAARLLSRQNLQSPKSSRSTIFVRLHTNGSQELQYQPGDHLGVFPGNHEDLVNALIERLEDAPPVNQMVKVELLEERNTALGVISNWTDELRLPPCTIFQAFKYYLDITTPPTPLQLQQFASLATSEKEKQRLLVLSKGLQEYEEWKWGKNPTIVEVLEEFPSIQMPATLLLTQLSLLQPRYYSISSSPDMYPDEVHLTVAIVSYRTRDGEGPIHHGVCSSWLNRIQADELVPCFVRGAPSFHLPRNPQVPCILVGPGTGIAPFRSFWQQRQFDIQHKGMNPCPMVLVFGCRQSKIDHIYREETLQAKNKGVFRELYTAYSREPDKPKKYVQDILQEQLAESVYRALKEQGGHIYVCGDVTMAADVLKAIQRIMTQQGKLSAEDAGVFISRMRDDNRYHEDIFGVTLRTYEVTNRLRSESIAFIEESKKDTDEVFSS
T1 sequence (P35228 whole entry): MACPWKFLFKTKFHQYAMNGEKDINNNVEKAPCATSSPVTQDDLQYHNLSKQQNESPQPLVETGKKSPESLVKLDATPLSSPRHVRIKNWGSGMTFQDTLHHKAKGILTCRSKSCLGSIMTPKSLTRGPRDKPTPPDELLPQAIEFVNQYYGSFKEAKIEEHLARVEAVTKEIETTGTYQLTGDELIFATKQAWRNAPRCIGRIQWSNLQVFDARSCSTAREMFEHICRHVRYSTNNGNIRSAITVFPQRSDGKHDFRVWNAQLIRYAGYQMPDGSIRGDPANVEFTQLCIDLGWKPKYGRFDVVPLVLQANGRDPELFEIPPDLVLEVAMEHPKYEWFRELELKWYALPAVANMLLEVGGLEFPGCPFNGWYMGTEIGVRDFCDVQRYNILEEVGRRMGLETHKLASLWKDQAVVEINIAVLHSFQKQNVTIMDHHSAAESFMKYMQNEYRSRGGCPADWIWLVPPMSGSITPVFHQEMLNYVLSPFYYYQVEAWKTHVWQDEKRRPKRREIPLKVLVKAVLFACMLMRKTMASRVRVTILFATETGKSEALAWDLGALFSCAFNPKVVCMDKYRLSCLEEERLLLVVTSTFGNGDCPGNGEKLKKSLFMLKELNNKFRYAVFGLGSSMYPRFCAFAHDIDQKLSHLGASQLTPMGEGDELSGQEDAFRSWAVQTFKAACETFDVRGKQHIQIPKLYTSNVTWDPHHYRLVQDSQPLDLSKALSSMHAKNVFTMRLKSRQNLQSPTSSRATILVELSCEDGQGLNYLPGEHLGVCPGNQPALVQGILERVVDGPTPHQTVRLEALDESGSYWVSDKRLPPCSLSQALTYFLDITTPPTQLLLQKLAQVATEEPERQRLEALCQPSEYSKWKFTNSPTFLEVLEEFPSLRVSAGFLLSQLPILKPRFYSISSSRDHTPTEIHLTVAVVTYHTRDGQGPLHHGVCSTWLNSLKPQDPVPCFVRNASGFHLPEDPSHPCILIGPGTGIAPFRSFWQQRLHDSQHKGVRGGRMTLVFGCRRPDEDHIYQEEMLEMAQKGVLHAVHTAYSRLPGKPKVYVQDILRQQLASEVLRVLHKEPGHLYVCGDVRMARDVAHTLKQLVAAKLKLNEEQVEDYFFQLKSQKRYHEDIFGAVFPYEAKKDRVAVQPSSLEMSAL

SMILES | IC50 [1] | IC50 (Nitric oxide synthase 1 [2]) | IC50 (Nitric oxide synthase 3) | inhibition [3] | inhibition [4] | inhibition (Nitric oxide synthase 1 [5])
C/C=C/CC1COCCC(N)=N1 (configuration not stated) | 9.26 µM | 108 µM | 709 µM |  |  | 
CCCCC1CCCCC(N)=N1 (configuration not stated) | 0.517 µM |  |  |  |  | 
N=C1CCOCC(CC[N+](=O)[O-])N1 (configuration not stated) | 0.979 µM | 6.24 µM | 49.3 µM |  |  | 
CCOC(=O)[C@H]1CSCCC(N)=N1 |  |  |  | 13.9% | 70.9% | 82.6%
NC1=NCCSCC1 | 2.7 µM | 6.8 µM | 43.6 µM |  |  | 
NC1=NC(CC[N+](=O)[O-])CCCC1 (configuration not stated) | 0.152 µM | 0.339 µM | 2.77 µM |  |  | 

Second part, the compound after the results:

IC50 [1] | IC50 (Nitric oxide synthase 1 [2]) | IC50 (Nitric oxide synthase 3) | inhibition [3] | inhibition [4] | inhibition (Nitric oxide synthase 1 [5]) | SMILES
14 µM | 17.7 µM | 72.7 µM |  |  |  | NC1=NCCOCC1
 |  |  | 6.42% | 32.1% |  | CN1CCN=C(N)CC1
 |  |  | 2.4% | 55.7% | 13.9% | CCOC(=O)[C@@H]1CCSCC/C(N)=N\1
13.1 µM | 21 µM | 186 µM |  |  |  | N/C1=N/CCCSCC1
2.43 µM | 25.9 µM | 1360 µM |  |  |  | CCCCC1COCCC(N)=N1 (configuration not stated)
6.66 µM | 8.39 µM | 248 µM |  |  |  | NCCC1COCCC(N)=N1 (configuration not stated)
 |  |  | 8.66% | 70.9% | 84.8% | CCOC(=O)[C@@H]1CSCCC(N)=N1
0.701 µM | 0.932 µM | 39.1 µM |  |  |  | NCCC1CCCCC(N)=N1 (configuration not stated)
0.89 µM | 3.39 µM | 206 µM |  |  |  | C/C=C/CC1CCCCC(N)=N1 (configuration not stated)
